Laboratory results reported in US8883758B2, “3,5-disubstituted and 3,5,7-trisubstituted-3H-oxazolo and 3H-thiazolo[4,5-d]pyrimidin-2-one compounds and prodrugs thereof” (Anadys Pharmaceuticals, Inc., priority 2004, dated 2014).

Assays:
[1] = tested on: fresh cynomolgus monkey hepatocytes; assay: Metabolism of Formula I prodrugs to 6-oxy metabolites in fresh cynomolgus monkey hepatocytes (LC/MS/MS); type: in vitro ADME
Method: A study was undertaken to evaluate the metabolic stability of Formula I compounds 14, 15, 13, 114, 30, 103, 67, 65, and 76 in the presence of fresh cynomolgus monkey hepatocytes and monitor the formation of 6-oxy metabolites, i.e., Formula II compounds and other compounds of the invention. For comparison, the metabolic stability of famciclovir was also assessed.
Fresh cynomolgus monkey hepatocyte suspension (Lot #: Cy141) was purchased from CellzDirect (Tucson, Ariz.). Hepatocyte Incubation Medium (serum-free, sterile) was purchased from In Vitro Technologies (Baltimore, Md.).
The cynomolgus monkey hepatocyte suspension was prepared from fresh cynomolgus monkey hepatocytes in hepatocyte incubation medium at the concentration of 1.25 million cells/mL. The final incubation concentration (after test article addition) was 1.0 million cells/mL.
Existing 100 mM stock solutions in DMSO were used. The concentrations of the test articles were checked using UV-vis microplate reader. Correction coefficients were determined using the absorbance of a freshly prepared DMSO stock of 122.
Reaction suspensions were prepared in removable 96-well tubes, each containing 320 μL of fresh cynomolgus monkey hepatocyte suspension at the density of 1.25 million cells per mL and 40 μL of hepatocyte incubation medium. The above mixtures were pre-incubated open at 37° C., 95% humidity and 5% CO2 for 30 minutes. Reactions were initiated by the addition of 40 μL of test article at 10× concentration to each tube to achieve the final concentrations of 50 μM for the test article(s) and 1 million/mL cell density. The reaction suspension in each tube was mixed by inverting the tube several times. Aliquots of 50 μL from each reaction suspension were distributed into six additional removable 96-well tubes (one tube per time point taken at 15, 30, 45, 60, 90, and 120 minutes). The open tubes were incubated at 37° C. under 95% humidity and 5% CO2.
At predetermined time points, reactions were terminated by the addition of 150 μL of the stop solution to each tube containing 50 μL of the reaction suspension. The composition of the stop solution was the following: 15 mL of acetonitrile (containing 1 μg/mL nebularine as an internal standard and 0.1% formic acid) combined with 1 mL water.
The calibration curves were prepared in the following way. To 80 μL of cell suspension (at the cell density of 1.25 million/mL) 10 μL of hepatocyte incubation medium and 10 μL of the appropriate concentration of the compound in hepatocyte incubation medium were added Immediately following the compound addition, 300 μL of the stop solution (see above) was added.
All quenched samples were kept on wet ice until they were processed for analysis. Then they were mixed using a bench top Multi-Tube Vortexer (VWR Scientific Products) for approximately 30 seconds, and centrifuged at 4,000 rpm (3,220 rcf) for 10 minutes at 4° C. Clear supernatant (100 μl) was transferred into a clean deep well 96-well plate, evaporated to dryness under nitrogen, reconstituted in 100 μL of 90:10 water:acetonitrile, and analyzed for the parent form and metabolites of the test article using an appropriate LC/MS/MS method.
The compounds were quantified on an API3000 LC/MS/MS instrument in the ESI-Positive MRM (multiple reaction monitoring) mode.

human PBMCs = assay: IFN-α induction from peripheral blood mononuclear cells (PBMC), IFN-α ELISA; type: cell-based; conditions: for Emax: Homo sapiens, PBMC, percentage of the level of IFN-α induction by either 32 or 100 μM isatoribine, 24 hours compound exposure, read-out: IFN-α induction from PBMCs relative to isatoribine; for Difference in amount of IFN-α produced compared with isatoribine: 100 μM test agent
Method: Peripheral blood mononuclear cells (PBMCs) are prepared by standard methods from human blood and are primarily comprised of monocytes, NK cells, circulating dendritic cells and both T and B cells. Briefly, they are purified by density gradient centrifugation from a buffy coat, which is the component of whole blood that contains leukocytes and platelets. In turn, buffy coats are prepared by centrifuging whole blood and isolating the thin cream colored layer between the upper plasma layer and the lower red blood cell portion of the separated mixture.
Freshly collected donor buffy coats were obtained from the San Diego Blood Bank. PBMCs were isolated from the buffy coats using histopaque-1077 gradient (Sigma), essentially as described in the manufacturer's protocol. Buffy coats were transferred into 50 ml centrifuge tubes and PBS added to a total volume of 35 ml. Next 10 ml histopaque-1077 was underlayed at the bottom of each tube, which were then centrifuged at 259×g for 30 minutes at room temperature without brake in a 5804 R centrifuge (Eppendorf). The top PBS level from each tube was removed and discarded and the buffy coat layer transferred to a fresh tube. The total volume was made up to 50 ml with PBS and the tubes were then centrifuged for 10 minutes at 259×g at room temperature. The cells were washed an additional 3 times with PBS in this manner.
The cell (PBMC) pellet was then resuspended in 30-40 ml complete (RPMI 1640) media. PBMCs were seeded at either 2.5 or 7.5×10^6 cells/ml complete media (1× and 3× seedings, respectively) and allowed to rest overnight before compound exposure for 24 hours. The cells and media were then collected, centrifuged for 5 minutes at 735×g in a 5415 C microfuge (Eppendorf) at room temperature and the supernatant analyzed by IFN-α ELISA. […] Hereby incorporated by reference in their entireties are U.S. Pat. Nos. 5,041,426 and 4,880,784, and U.S. patent application Ser. No. 10/861,430 (U.S. Patent Application Publication No. US 2005/0070556), which disclose, inter alia, IFN-α induction of isatoribine.
Accordingly, relative activities of the compounds of the invention are expressed as a percentage of the level of IFN-α induction by either 32 or 100 μM isatoribine.
Human IFN-α ELISA (#KHC4012) was performed as described in Biosource protocol. However, to ensure that readings were within the linear range of detection, PBMC supernatant samples were typically diluted 1:3 (2.5×10^6 cells/ml seeding) or 1:15 (7.5×10^6 cells/ml seeding) and then analyzed together with undiluted supernatant samples. The concentration in each sample was calculated from the O.D. by reference to a standard curve.

[2] = 1× PBMC seeding, 100 μM test compound

Compound	Emax (human PBMCs)	further results
CC(=O)OCC(CCn1cnc2cnc(N)nc21)COC(C)=O [Famciclovir, reference compound]	–	Metabolism to the corresponding 6-oxy metabolite [1]: metabolized to yield the corresponding 6-oxy metabolites
CC(=O)OC[C@H]1O[C@@H](n2c(=S)sc3c(=O)[nH]c(N)nc32)[C@H](OC(C)=O)[C@@H]1OC(C)=O [Compound 32, 5-amino-2,3-dihydro-2-thioxo-3-(2′,3′,5′-tri-O-acetyl-β-D-ribofuranosyl)thiazolo[4,5-d]pyrimidin-7-(6H)-one]	51 to 100%	–
Nc1nc2c(sc(=O)n2[C@@H]2O[C@H](CO)[C@@H](CO)[C@H]2O)c(=O)[nH]1 [Compound 148, (3′S)-5-Amino-3-(3′-deoxy-3′-hydroxymethyl-β-D-ribofuranosyl)-3H,6H-thiazolo[4,5-d]pyrimidin-2,7-dione]	0 to 10%	–
Nc1nc2c(sc(=O)n2[C@@H]2O[C@H](CO)[C@H](O)[C@H]2O)c(=O)[nH]1 [Compound 134]	> 100%	IFN-α production compared with isatoribine (human PBMCs; [2]): significantly and substantially more IFN-α production; IFN-α production compared with isatoribine (human PBMCs; 3× PBMC seeding, 32 μM): dramatically and unexpectedly outperform isatoribine; Difference in amount of IFN-α produced compared with isatoribine (human PBMCs; 3× PBMC seeding): less clear-cut although visually apparent and statistically significant
CC(=O)OC[C@H]1O[C@@H](n2c(=O)sc3c(=O)[nH]c(N)nc32)[C@H](OC(C)=O)[C@H]1OC(C)=O [Compound 133, 5-Amino-3-(2′,3′,5′-tri-O-acetyl-β-D-xylofuranosyl)-3H,6H-thiazolo[4,5-d]pyrimidin-2-one]	> 100%	–
CC(=O)OC[C@@H]1C[C@@H](OC(C)=O)[C@H](n2c(=O)sc3c(=O)[nH]c(N)nc32)O1 [Compound 121, 5-Amino-3-(2′,5′-di-O-acetyl-3′-deoxy-β-D-ribofuranosyl)-3H,6H-thiazolo[4,5-d]pyrimidine-2,7-dione]	> 100%	–
C[C@@]1(O)[C@@H](CO)O[C@@H](n2c(=O)sc3c(=O)[nH]c(N)nc32)[C@@H]1O [Compound 117, 5-Amino-3-(3′-C-methyl-β-D-ribofuranosyl)thiazolo[4,5-d]pyrimidine-2,7(3H,6H)-dione]	> 100%	–
Nc1nc2c(sc(=O)n2[C@@H]2O[C@H](CO)[C@H](F)[C@H]2O)c(=O)[nH]1 [Compound 153, (3′R)-5-Amino-3-(3′-deoxy-3′-fluoro-β-D-xylofuranosyl)-3H,6H-thiazolo[4,5-d]pyrimidin-2,7-dione]	> 100%	–
CC(=O)O[C@@H]1[C@@H](F)[C@@H](COC(=O)c2ccccc2)O[C@H]1n1c(=O)sc2c(=O)[nH]c(N)nc21 [Compound 152, (3′R)-5-Amino-3-(2′-O-acetyl-5′-O-benzoyl-3′-deoxy-3′-fluoro-β-D-xylofuranosyl)-3H,6H-thiazolo[4,5-d]pyrimidin-2,7-dione]	11 to 50%	–
CC(=O)OC[C@H]1[C@@H](OC(C)=O)[C@H](n2c(=O)sc3c(=O)[nH]c(N)nc32)O[C@@H]1COC(C)=O [Compound 147, (3′S)-5-Amino-3-(3′-acetoxymethyl-2′,5′-di-O-acetyl-3′-deoxy-β-D-ribofuranosyl)-3H,6H-thiazolo[4,5-d]pyrimidin-2,7-dione]	> 100%	–
CO[C@@H]1[C@@H](O)[C@H](n2c(=O)sc3c(=O)[nH]c(N)nc32)O[C@@H]1CO [Compound 137, 5-Amino-3-(3′-(R)-Methoxy-β-D-xylofuranosyl)-3H,6H-thiazolo[4,5-d]pyrimidin-2-one]	51 to 100%	–
Nc1nc2c(sc(=S)n2[C@@H]2O[C@H](CO)[C@@H](O)[C@H]2O)c(=O)[nH]1 [Compound 33, 5-amino-2,3-dihydro-2-thioxo-3-β-D-ribofuranosyl-thiazolo[4,5-d]pyrimidin-7(6H)-one]	0 to 10%	–
CCCCCCn1c(=O)sc2c(=O)[nH]c(N)nc21 [Compound 157, 5-Amino-3-hexyl-3H,6H-thiazolo[4,5-d]pyrimidine-2,7-dione]	0 to 10%	–
CC(=O)OC[C@H]1O[C@@H](n2c(=S)sc3c(=O)[nH]c(N)nc32)[C@H](OC(C)=O)[C@H]1OC(C)=O [Compound 34, 5-amino-2,3-dihydro-2-thioxo-3-(2′,3′,5′-tri-O-acetyl-β-D-xylofuranosyl)thiazolo[4,5-d]pyrimidin-7-(6H)-one]	> 100%	–
C=C1[C@@H](O)[C@H](n2c(=O)sc3c(=O)[nH]c(N)nc32)O[C@@H]1CO [Compound 132, 5-Amino-3-(3′-deoxy-3′-methylidene-β-D-ribofuranosyl)-3H,6H-thiazolo[4,5-d]pyrimidine-2,7-dione]	> 100%	–
Nc1nc2c(sc(=O)n2[C@H]2C[C@H](O)[C@@H](CO)O2)c(=O)[nH]1 [Compound 130, 5-Amino-3-(2′-deoxy-β-D-ribofuranosyl)-3H,6H-thiazolo[4,5-d]pyrimidine-2,7-dione]	51 to 100%	–
CC(=O)OCC(OC(C)=O)[C@H]1O[C@@H](n2c(=O)sc3c(=O)[nH]c(N)nc32)[C@H](OC(C)=O)[C@H]1OC(C)=O (stereo partly drawn) [Compound 142, 5-Amino-3-(5′-(1,2-diacetoxy-ethyl), 2′,3′-di-O-acetyl-β-D-glucofuranosyl)-3H,6H-thiazolo[4,5-d]pyrimidin-2-one]	0 to 10%	–
Nc1nc2c(sc(=O)n2[C@@H]2O[C@H](CO)C[C@H]2O)c(=O)[nH]1 [Compound 122, 5-Amino-3-(3′-deoxy-β-D-ribofuranosyl)-3H,6H-thiazolo[4,5-d]pyrimidine-2,7-dione]	> 100%	IFN-α production compared with isatoribine (human PBMCs; [2]): significantly and substantially more IFN-α production; IFN-α production compared with isatoribine (human PBMCs; 3× PBMC seeding, 32 μM): dramatically and unexpectedly outperform isatoribine; Difference in amount of IFN-α produced compared with isatoribine (human PBMCs; 3× PBMC seeding): less clear-cut although visually apparent and statistically significant
Nc1nc2c(sc(=O)n2[C@H]2CC[C@@H](CO)O2)c(=O)[nH]1 [Compound 165, 5-Amino-3-(2′,3′-dideoxy-β-D-ribofuranosyl)-3H,6H-thiazolo[4,5-d]pyrimidine-2,7-dione]	11 to 50%	–
C[C@]1(O)[C@@H](CO)O[C@@H](n2c(=O)sc3c(=O)[nH]c(N)nc32)[C@@H]1O [Compound 141, 5-Amino-3-(3′-(S)-methyl, 2′,3′,5′-tri-hydroxy-β-D-xylofuranosyl)-3H,6H-thiazolo[4,5-d]pyrimidin-2-one]	0 to 10%	–
